“Also recorded” adds a separate entry of the source.

Experiment [1] concerns pregnant rats. Put plainly: Time of delivery of timed-pregnant rats (hours after 8 a.m. of day 22 of gestation). It is filed as in vivo, Sprague-Dawley rats. From the text:
(§1) Nonpregnant and timed-pregnant Sprague-Dawley rats (200-250 g) from Charles-River Laboratories (Wilmington, Mass., USA) were delivered to animal care facilities on day 12 of gestation (day 1 being the day when a sperm plug was observed). The animals were housed separately, with free access to food and water and maintained on a constant 12-hour light-dark cycle. Control pregnant rats were spontaneously delivering on day 22 and 23 of gestation. For the measurements with the collascope the animals were anaesthetized (interperitoneal (i.p). injection) with a combination of xylazine (Gemini, Burns Veterinary Supply Inc, Rockville Center, N.Y., USA) and ketamine HCl (Ketaset; Fort Dodge Laboratories Inc, Fort Dodge, Iowa, USA). The animals were randomly allocated to one of the groups and sacrificed by carbon dioxide inhalation on day 3, 5, 7 and 10 postpartum or on day 25 of pregnancy in the groups with delayed delivery. All procedures were approved by the Animal Care and Use Committee of the St. Joseph's Hospital and Medical Center in Phoenix.
(§2) Prior to any treatment LIF measurements were made in control rats throughout pregnancy and postpartum to estimate the LIF profile during gestation (see FIG. 1). Pregnant rats (N=6/group) were treated (see FIG. 2), when not otherwise mentioned (see FIG. 3), from day 13 of pregnancy until delivery. Single daily treatments were performed at 8 a.m. and twice a day treatments at 8 a.m. and 8 p.m. All single injections (4 mg P4, 10 mg 17P, 2 mg promegestone (R5020)) were by the subcutaneous route (s.c.) in sesame oil (0.2 ml), which was also used for the controls. Vaginal gels were applied twice a day with a blunt ball-top needle deep into the vagina. Crinone was used for the P4 vaginal group (equivalent volumes of Crinone were used for 2-15 mg P4/treatment), all data presented show the results of the highest dose (total daily dose of 30 mg P4=⅓ of a applicator of 8% Crinone that contains 90 mg P4). For the vaginal promegestone (R5020) group micronized promegestone (R5020) (1 mg/treatment) was mixed into 0.18 ml of Replens. The control rats for the vaginal groups were treated with Replens (0.18 ml/treatment). For oral P4 treatments (15 mg, bid, vehicle sesame oil or H2O, volume 1 ml) gavage was used. For topical P4 treatment (15 mg, bid, P4 in 1 ml sesame oil, fish oil or in Replens) the drug was applied on the back of animals that were shaved on day 13, 17 and 21. In some animals (N=6) RU-486 (3 mg in 0.2 ml sesame oil) was injected subcutaneously once on day 16 of gestation.
Times of delivery (see also FIG. 4) of controls and various treatment groups were determined as hours after 8 a.m. of day 22 of gestation (FIG. 5). The expulsion of one pup was defined as delivery.
The cervical LIFs obtained at different times of gestation (FIG. 1) were compared using one-way analysis of variance (ANOVA) and multiple pairwise comparison procedures (Holm-Sidak). Student's t-test was used to compare the LIF results of a treatment group to its specific control group at any time in gestation and postpartum and also to determine the differences in delivery times (FIGS. 2, 3 and 5). A two-tailed probability value of P<0.05 was considered statistically significant.
FIG. 15 depicts delay of delivery times in timed pregnant rats treated with progesterone (P4) with different routes and vehicles. Treatment was started on day 13 of gestation and continued until delivery of pups or until delivery was blocked at […] (day 25) past day 22 of gestation. 8 am on day 22 is noted as hour 0 and delay is compared to control group treated only with vehicle. Treatment groups included: P4 in fish oil (vaginal, nasal, injection and topical groups), P4 in cocoa butter (rectal) and P4 in sesame oil (oral). All treatment groups received a total daily dose of 30 mg P4/day except the nasal and subcutaneous injection group which received 1 mg/day and 4 mg/day, respectively. […]

The test system of experiment [2] is cervix of pregnant rats. Description: Cervical ripening assessed in vivo by collagen light-induced fluorescence (LIF) with the collascope. Set-up: species or system Sprague-Dawley rats.
Description: as §1, §2
The amount of cervical collagen was evaluated in vivo (only in group subcutaneously P4, vaginal P4, subcutaneously 17P, vaginal promegestone (R5020), subcutaneously RU-486) by measurement of the auto-fluorescent properties of cross-linked collagen with a new prototype of an instrument, termed collascope (Reproductive Research Technologies, Houston, Tex., USA), as used previously with an earlier prototype.
After insertion of a small speculum into the vagina of the anesthetized animal, the optical probe of the collascope was placed on the surface of the exocervix. […] The exposure time for excitation was 100 msec. The average of 20 measurements of the detected fluorescent intensity (photon count) at 390 nm was used for each animal at any given time. Measurements of cervical light-induced fluorescence (LIF) were performed on nonpregnant animals once and in pregnant animals every other day starting at day 13 of gestation until delivery and on postpartum day 3 and/or postpartum day 5 (see FIGS. 2 and 3), and for some animals also on postpartum days 7 and 10 (see FIGS. 1 and 3).
The cervical LIFs obtained at different times of gestation (FIG. 1) were compared using one-way analysis of variance (ANOVA) and multiple pairwise comparison procedures (Holm-Sidak). […]

[3] abbreviates: RU-486 3 mg s.c. once on day 16.
Where [4] appears, read: s.c. injection daily in sesame oil from day 13 (P4 4 mg, 17P 10 mg, R5020 2 mg).

`CC#C[C@]1(O)CC[C@H]2[C@@H]3CCC4=CC(=O)CCC4=C3[C@@H](c3ccc(N(C)C)cc3)C[C@@]21C` [RU-486, mifepristone]: in experiment [1] (setting [3]), the “animals delivered after 24 hours” value is given as 4 of 6, the “delivery of the remaining two animals after treatment” value was ≤ 48 h and the “time of induced preterm delivery after injection” value was 24 to 48 h. In addition, the “cervical ripening / softening” value in experiment [2] (setting [3]) is reported as “softened the cervix during preterm delivery; also recorded: cervical ripening occurs after 24 hours followed by preterm delivery”. For the same compound, the “cervical LIF compared with vehicle controls” value in experiment [2] (RU-486 3 mg s.c. once on day 16, 24 and 72 hours after treatment) is “significantly lower (P<0.05)”. The “cervical LIF compared with vehicle controls” value in experiment [2] (RU-486 3 mg s.c. once on day 16, 5 days after treatment) is recorded as “higher”.

For `CCCCCC(=O)O[C@]1(C(C)=O)CC[C@H]2[C@@H]3CCC4=CC(=O)CC[C@]4(C)[C@H]3CC[C@@]21C` [17P, 17-alpha-hydroxyprogesterone caproate], the effect on delivery entry in experiment [1] (setting [4]) is “Delivery was not changed; also recorded: does not block delivery at all; also recorded: no significant effect on delaying term delivery”. Besides, in experiment [2] (17P 10 mg s.c. daily from day 13), the “cervical LIF / cervical ripening compared with vehicle controls” value is on record as “cervix is rigid; also recorded: significantly higher (P<0.05) in the 17P treated group (until day 19 only); also recorded: delayed cervical ripening but not at term immediately preceding delivery; also recorded: only attenuated until day 19 of gestation; also recorded: partly delays ripening; also recorded: not significantly different from controls at day 21; also recorded: significant differences are only observed until day 19 of gestation”.

Consider `CCC(=O)[C@@]1(C)CC[C@H]2[C@@H]3CCC4=CC(=O)CCC4=C3CC[C@@]21C` [promegestone (R5020), Promegestone], for which the values for the effect on delivery entry in experiment [1] (setting [4]) and in experiment [1] (vaginal bid from day 13 (P4 15 mg as Crinone; R5020 1 mg in Replens)) were “inhibits delivery; also recorded: completely block delivery; also recorded: prevented delivery; also recorded: completely inhibited” and “inhibits delivery; also recorded: completely blocked delivery; also recorded: prevented delivery; also recorded: completely inhibited; also recorded: delivery is blocked”, respectively. In addition, in experiment [2] (vaginal promegestone (R5020) 1 mg bid in Replens from day 13), the “cervical LIF / cervical ripening compared with vehicle controls” value was “cervix is rigid; also recorded: significantly higher (P<0.05) in the promegestone (R5020) treated group (until day 19 only); also recorded: delayed cervical ripening but not at term immediately preceding delivery; also recorded: only attenuated until day 19 of gestation; also recorded: not significantly different from controls; also recorded: significant differences are observed only until day 19”.

The record behind these values is patent US10449183B2, “Methods for inhibiting preterm labor and uterine contractility disorders and preventing cervical ripening” (DIGNITY HEALTH, priority 2010, dated 2019).
